From EP3046573B1, “AMYLIN ANALOGUES” (Zealand Pharma A/S, priority 2013, dated 2015)
Like-named read-outs stand apart in the source and are kept apart here. Numbered stars: 1 amine (or outer) side, 2 acyl side, 3 side chain; on linkers, the order of the positions; unused ones are H or OH. Bridge positions count the residues as written; N and C are the ends. Square brackets hold non-standard residues; d marks the D form. Peptide text beside a SMILES is read from it. * marks the point of attachment. C20 diacid = O=C(O)CCCCCCCCCCCCCCCCCCC(=O)*; γGlu = O=C(O)[C@H](CCC(=O)[*:2])N[*:1]; NMeI = CC[C@H](C)[C@H](NC)C(=O)O; Dab = NCC[C@H](N)C(=O)O; Sar = CNCC(=O)O

Tests used:
[1] = Solubility assessment (turbidity absorbance at 325 nm); format: physicochemical; details: stock 2 mg/ml diluted 1:1, ambient temperature (typically 25°C), n=1; for Solubility, Acetate buffer pH 4: 100 mM acetate buffer pH 4.0; for Solubility, Acetate buffer pH 5: 100 mM acetate buffer pH 5.0; for Solubility, Histidine buffer pH 6: 100 mM histidine buffer pH 6.0; for Solubility, Histidine buffer pH 7: 100 mM histidine buffer pH 7.0; for Solubility, Phosphate buffer pH 6: 100 mM phosphate buffer pH 6.0; for Solubility, Phosphate buffer pH 7: 100 mM phosphate buffer pH 7.0; for Solubility, Phosphate buffer pH 7.5: 100 mM phosphate buffer pH7.5
Summary of the method: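 Turbidimetric screen across pH 4.0–7.5 in 100 mM acetate, histidine and phosphate buffers. A 2 mg/ml peptide stock (pH 2.5) was diluted 1:1 into each, then A325 measured at ambient temperature; values ≤ 0.02 AU denoted solubility of 1 mg/ml or more.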

[2] = molecular target: T1, human calcitonin receptor (hCTR2) (Homo sapiens, UniProt P30988); assay: hCTR2 assay: induction of cAMP (AlphaScreen cAMP Assay kit) in COS7 cells expressing hCTR2; format: cell-based
T1 construct: expressed in transfected cells
T1 sequence (P30988 25-474): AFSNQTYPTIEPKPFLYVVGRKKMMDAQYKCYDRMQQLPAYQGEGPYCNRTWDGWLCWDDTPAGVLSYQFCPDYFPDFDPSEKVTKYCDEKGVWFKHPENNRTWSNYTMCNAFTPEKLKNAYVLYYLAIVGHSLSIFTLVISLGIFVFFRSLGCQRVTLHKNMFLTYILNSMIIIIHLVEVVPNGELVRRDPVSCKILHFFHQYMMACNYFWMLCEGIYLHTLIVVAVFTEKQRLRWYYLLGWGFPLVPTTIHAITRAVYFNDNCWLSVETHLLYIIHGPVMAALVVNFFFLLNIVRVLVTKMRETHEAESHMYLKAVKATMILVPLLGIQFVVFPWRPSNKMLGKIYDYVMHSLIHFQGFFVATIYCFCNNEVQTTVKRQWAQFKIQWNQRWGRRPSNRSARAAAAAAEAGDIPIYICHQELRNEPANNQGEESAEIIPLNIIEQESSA
Summary of the method: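 cAMP read-out by AlphaScreen after cell lysis; EC50 and % efficacy vs pramlintide from 4-parameter logistic fitting. Agonist stimulation: hCTR2-COS7 stable cells, 15 min, 37° C, 100 µM IBMX, 0.1% casein, Tyrode/HEPES pH 7.4.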

[3] = cAMP induction in COS7 cells expressing hCTR2, average of a minimum of 3 determinations, read-out: hCTR2 EC50

| Structure (SMILES) | Solubility, Acetate buffer pH 4 [1] | Solubility, Acetate buffer pH 5 [1] | Solubility, Histidine buffer pH 6 [1] | Solubility, Histidine buffer pH 7 [1] | Solubility, Phosphate buffer pH 6 [1] | Solubility, Phosphate buffer pH 7 [1] | Solubility, Phosphate buffer pH 7.5 [1] | EC50 [2] [nM] | EC50 [2, 3] [nM] |
| --- | --- | --- | --- | --- | --- | --- | --- | --- | --- |
| CC[C@H](C)[C@@H](C(=O)N[C@@H](CC(C)C)C(=O)N[C@@H](CO)C(=O)N[C@@H](CO)C(=O)N[C@H](C(=O)N[C@@H](CC(N)=O)C(=O)N[C@H](C(=O)NCC(=O)N[C@@H](CO)C(=O)N[C@@H](CC(N)=O)C(=O)N[C@H](C(=O)N1CCC[C@H]1C(N)=O)[C@@H](C)O)C(C)C)[C@@H](C)O)N(C)C(=O)[C@H](C)NC(=O)CN(C)C(=O)[C@H](Cc1ccccc1)NC(=O)[C@H](CC(N)=O)NC(=O)[C@H](CC(N)=O)NC(=O)[C@H](CO)NC(=O)[C@H](CO)NC(=O)[C@H](CC(C)C)NC(=O)[C@H](Cc1ccccc1)NC(=O)[C@H](CCC(=O)O)NC(=O)[C@H](C)NC(=O)[C@H](CC(C)C)NC(=O)[C@H](CCCNC(=N)N)NC(=O)[C@H](CCC(N)=O)NC(=O)[C@@H](NC(=O)[C@H](C)NC(=O)[C@@H]1CSSC[C@H](NC(=O)[C@H](CCCNC(=N)N)NC(=O)CC[C@H](NC(=O)CCCCCCCCCCCCCCCCCCC(=O)O)C(=O)O)C(=O)N[C@@H](CC(N)=O)C(=O)N[C@@H]([C@@H](C)O)C(=O)N[C@@H](C)C(=O)N[C@@H]([C@@H](C)O)C(=O)N1)[C@@H](C)O [Compound 41, [19CD]-isoGlu-RC()NTATC()ATQRLAEFLSSNNF-Gly(Me)-A-Ile(Me)-LSSTNVGSNTP-NH2] ({C20 diacid-γGlu}-RCNTATCATQRLAEFLSSNNF[Sar]A[NMeI]LSSTNVGSNTP-NH2; disulfide 2-7) | SS (SS indicates solubility ≥ 1mg/ml) | SS (SS indicates solubility ≥ 1mg/ml) | SS (SS indicates solubility ≥ 1mg/ml) | SS (SS indicates solubility ≥ 1mg/ml) | SS (SS indicates solubility ≥ 1mg/ml) | SS (SS indicates solubility ≥ 1mg/ml) | SS (SS indicates solubility ≥ 1mg/ml) | 0.071 | – |
| CC[C@H](C)[C@@H](C(=O)N[C@@H](CC(C)C)C(=O)N[C@H](CO)C(=O)N[C@@H](CO)C(=O)N[C@H](C(=O)N[C@@H](CC(N)=O)C(=O)N[C@H](C(=O)NCC(=O)N[C@@H](CO)C(=O)N[C@@H](CC(N)=O)C(=O)N[C@H](C(=O)N1CCC[C@H]1C(N)=O)[C@@H](C)O)C(C)C)[C@@H](C)O)N(C)C(=O)CN(C)C(=O)[C@H](Cc1ccccc1)NC(=O)[C@H](CC(N)=O)NC(=O)[C@H](CC(N)=O)NC(=O)[C@H](CO)NC(=O)[C@H](CO)NC(=O)[C@H](Cc1c[nH]cn1)NC(=O)[C@H](Cc1c[nH]cn1)NC(=O)[C@H](CC(C)C)NC(=O)[C@H](Cc1ccccc1)NC(=O)[C@H](CCC(=O)O)NC(=O)[C@H](C)NC(=O)[C@H](CC(C)C)NC(=O)[C@H](CCCNC(=N)N)NC(=O)[C@H](CCC(N)=O)NC(=O)[C@@H](NC(=O)[C@H](C)NC(=O)[C@@H]1CSSC[C@H](NC(=O)[C@H](CCCNC(=N)N)NC(=O)CC[C@H](NC(=O)CCCCCCCCCCCCCCCCCCC(=O)O)C(=O)O)C(=O)N[C@@H](CC(N)=O)C(=O)N[C@@H]([C@@H](C)O)C(=O)N[C@@H](C)C(=O)N[C@@H]([C@@H](C)O)C(=O)N1)[C@@H](C)O [Compound 24, [19CD]-isoGlu-RC()NTATC()ATQRLAEFLHHSSNNF-Gly(Me)-Ile(Me)-L-DSer-STNVGSNTP-NH2] ({C20 diacid-γGlu}-RCNTATCATQRLAEFLHHSSNNF[Sar][NMeI]L[dS]STNVGSNTP-NH2; disulfide 2-7) | SS (SS indicates solubility ≥ 1mg/ml) | SS (SS indicates solubility ≥ 1mg/ml) | SS (SS indicates solubility ≥ 1mg/ml) | SS (SS indicates solubility ≥ 1mg/ml) | SS (SS indicates solubility ≥ 1mg/ml) | SS (SS indicates solubility ≥ 1mg/ml) | SS (SS indicates solubility ≥ 1mg/ml) | – | 0.13 |
| CC[C@H](C)[C@@H](C(=O)N[C@@H](CC(C)C)C(=O)N[C@@H](CO)C(=O)N[C@@H](CO)C(=O)N[C@H](C(=O)N[C@@H](CC(N)=O)C(=O)N[C@H](C(=O)NCC(=O)N[C@@H](CO)C(=O)N[C@@H](CC(N)=O)C(=O)N[C@H](C(=O)N1CCC[C@H]1C(N)=O)[C@@H](C)O)C(C)C)[C@@H](C)O)N(C)C(=O)CN(C)C(=O)[C@H](Cc1ccccc1)NC(=O)[C@H](CC(N)=O)NC(=O)[C@H](CC(N)=O)NC(=O)[C@H](CO)NC(=O)[C@H](CO)NC(=O)[C@H](Cc1c[nH]cn1)NC(=O)[C@H](Cc1c[nH]cn1)NC(=O)[C@H](CC(C)C)NC(=O)[C@H](Cc1ccccc1)NC(=O)[C@H](CCC(=O)O)NC(=O)[C@H](C)NC(=O)[C@H](CC(C)C)NC(=O)[C@H](CCCNC(=N)N)NC(=O)[C@H](CCC(N)=O)NC(=O)[C@@H](NC(=O)[C@H](C)NC(=O)[C@@H]1CSSC[C@H](NC(=O)[C@H](CCN)NC(=O)CC[C@H](NC(=O)CCCCCCCCCCCCCCCCCCC(=O)O)C(=O)O)C(=O)N[C@@H](CC(N)=O)C(=O)N[C@@H]([C@@H](C)O)C(=O)N[C@@H](C)C(=O)N[C@@H]([C@@H](C)O)C(=O)N1)[C@@H](C)O [Compound 64, [19CD]-isoGlu-Dab-C()NTATC()ATQRLAEFLHHSSNNF-Gly(Me)-Ile(Me)-LSSTNVGSNTP-NH2] ({C20 diacid-γGlu}-[Dab]CNTATCATQRLAEFLHHSSNNF[Sar][NMeI]LSSTNVGSNTP-NH2; disulfide 2-7) | SS (SS indicates solubility ≥ 1mg/ml) | II (II indicates solubility ≤ 1 mg/ml) | SS (SS indicates solubility ≥ 1mg/ml) | SS (SS indicates solubility ≥ 1mg/ml) | SS (SS indicates solubility ≥ 1mg/ml) | SS (SS indicates solubility ≥ 1mg/ml) | SS (SS indicates solubility ≥ 1mg/ml) | – | 0.4 |
| CC[C@H](C)[C@@H](C(=O)N[C@@H](CC(C)C)C(=O)N[C@H](CO)C(=O)N[C@@H](CO)C(=O)N[C@H](C(=O)N[C@@H](CC(N)=O)C(=O)N[C@H](C(=O)NCC(=O)N[C@@H](CO)C(=O)N[C@@H](CC(N)=O)C(=O)N[C@H](C(=O)N1CCC[C@H]1C(N)=O)[C@@H](C)O)C(C)C)[C@@H](C)O)N(C)C(=O)CN(C)C(=O)[C@@H](Cc1ccccc1)NC(=O)[C@H](CC(N)=O)NC(=O)[C@H](CC(N)=O)NC(=O)[C@H](CO)NC(=O)[C@H](CO)NC(=O)[C@H](Cc1c[nH]cn1)NC(=O)[C@H](Cc1c[nH]cn1)NC(=O)[C@H](CC(C)C)NC(=O)[C@H](Cc1ccccc1)NC(=O)[C@H](CCC(=O)O)NC(=O)[C@H](C)NC(=O)[C@H](CC(C)C)NC(=O)[C@H](CCCNC(=N)N)NC(=O)[C@H](CCC(N)=O)NC(=O)[C@@H](NC(=O)[C@H](C)NC(=O)[C@@H]1CSSC[C@H](NC(=O)[C@H](CCCNC(=N)N)NC(=O)CC[C@H](NC(=O)CCCCCCCCCCCCCCCCCCC(=O)O)C(=O)O)C(=O)N[C@@H](CC(N)=O)C(=O)N[C@@H]([C@@H](C)O)C(=O)N[C@@H](C)C(=O)N[C@@H]([C@@H](C)O)C(=O)N1)[C@@H](C)O [Compound 60, [19CD]-isoGlu-RC()NTATC()ATQRLAEFLHHSSNN-DPhe-Gly(Me)-Ile(Me)-L-DSer-STNVGSNTP-NH2] ({C20 diacid-γGlu}-RCNTATCATQRLAEFLHHSSNN[dF][Sar][NMeI]L[dS]STNVGSNTP-NH2; disulfide 2-7) | SS (SS indicates solubility ≥ 1mg/ml) | SS (SS indicates solubility ≥ 1mg/ml) | SS (SS indicates solubility ≥ 1mg/ml) | SS (SS indicates solubility ≥ 1mg/ml) | SS (SS indicates solubility ≥ 1mg/ml) | II (II indicates solubility ≤ 1 mg/ml) | SS (SS indicates solubility ≥ 1mg/ml) | – | 0.12 |
